Data published in patent US20250382373A1, “ANTI-EGFR/MET ANTIBODIES AND USES THEREOF” (Biocytogen Pharmaceuticals (Beijing) Co., Ltd., priority 2022, published 2025).

What was measured:
[1] = tested on: monkey MET (fasMET-His); experiment: SPR binding affinity of anti-MET antibodies to fasMET-His
Excerpt: (§1) In another similar experiment, the binding affinity of anti-MET antibodies M-6D12, M-6E6, M-7D3, M-819, M-8E2 and M-8H10 to hMET-His, fasMET-His or dMET-His (His-tagged dog MET, Sino, Cat #:70008-D08H) was verified. Telisotuzumab analog was used as a positive control.

[2] = tested on: monkey MET (fasMET-His); experiment: SPR binding activity of anti-EGFR/MET bispecific antibodies to fasMET-His; details: Table 15
Excerpt: (§2) Dissociation was monitored for 400 seconds.

[3] = molecular target: human EGFR (hEGFR-His) (Homo sapiens, UniProt P00533); experiment: SPR binding activity of anti-EGFR/MET bispecific antibodies to hEGFR-His; details: Table 15
[4] = tested on: NCI-H292 cells; experiment: Internalization of antibodies targeting EGFR and/or MET in NCI-H292 cells; format: cell-based, human; details: NCI-H292, 1 hour
Experimental: (§3) Anti-EGFR antibodies, anti-MET antibodies, or anti-EGFR/MET bispecific antibodies, together with the pHAb-Goat anti-human IgG secondary antibody were added to NCI-H1975 cells (ATCC, Reference No.: CRL-5908), HCC827 cells (ATCC, Reference No.: CRL-2868) and NCI-H292 (ATCC, Reference No.: CRL-1848) cells, respectively, and incubated for 1 hour. The cells were centrifuged and washed with FACS buffer. MFI was measured using a flow cytometer. Endocytosis rates of antibodies were calculated. For isotype control (ISO), an antibody targeting an irrelevant target protein was used.

[5] = tested on: HCC827 cells; experiment: Internalization of antibodies targeting EGFR and/or MET in HCC827 cells; format: cell-based, human; details: HCC827, 1 hour
Experimental: as §3

[6] = molecular target: monkey EGFR (fasEGFR-His); experiment: SPR binding activity of anti-EGFR/MET bispecific antibodies to fasEGFR-His; details: Table 15
Excerpt: as §2

[7] = molecular target: T1, dog MET (dMET-His) (Canis lupus familiaris, UniProt Q75ZY9); experiment: SPR binding affinity of anti-MET antibodies to dMET-His
T1 construct: His; purchased Sino 70008-D08H
Excerpt: as §1

[8] = tested on: SNU-5 cells; experiment: Internalization (endocytosis) in SNU-5 cells, pHAb secondary antibody, flow cytometry; format: cell-based, human; details: 2.5 μg/ml, 1 hour
Experimental: Anti-EGFR antibodies (2.5 μg/ml) and pHAb-Goat Anti-Human IgG secondary antibody (Promega (Beijing) Biotech Co., Ltd., Cat #: G9845) were added to SNU-5 cells (ATCC, Reference No.: CRL-5973). After incubating at 37° C. and 5% CO2 for 1 hour, the cells were centrifuged and washed with FACS buffer. The mean fluorescence intensity (MFI) values were measured using a flow cytometer, and the endocytosis rates of the anti-EGFR antibodies were calculated.
Anti-MET antibodies ([…]) and pHAb-GoatAnti-Human IgG Antibody (Promega (Beijing) Biotech Co., Ltd., Cat #: G9845) were added to SUN-5 cells. After incubating for 1 hour, the cells were centrifuged and washed with FACS buffer. The MFI values were measured using a flow cytometer, and the endocytosis rates of the anti-MET antibodies were calculated.
The secondary antibody used in the experiment was: pHAb-AffiniPure Fab Fragment Goat Anti-Human IgG (Jackson Immuno Research, Cat #: 109-007-008).

[9] = molecular target: T2, human MET (hMET-His) (Homo sapiens, UniProt P08581); experiment: SPR binding affinity of anti-MET antibodies to hMET-His
T2 construct: His; purchased ACROBiosystems Inc. MET-H5227
Excerpt: as §1

[10] = molecular target: T2, human MET (hMET-His); experiment: SPR binding activity of anti-EGFR/MET bispecific antibodies to hMET-His; details: Table 15
Excerpt: as §2

T2 sequence (P08581 25-932 limits assumed): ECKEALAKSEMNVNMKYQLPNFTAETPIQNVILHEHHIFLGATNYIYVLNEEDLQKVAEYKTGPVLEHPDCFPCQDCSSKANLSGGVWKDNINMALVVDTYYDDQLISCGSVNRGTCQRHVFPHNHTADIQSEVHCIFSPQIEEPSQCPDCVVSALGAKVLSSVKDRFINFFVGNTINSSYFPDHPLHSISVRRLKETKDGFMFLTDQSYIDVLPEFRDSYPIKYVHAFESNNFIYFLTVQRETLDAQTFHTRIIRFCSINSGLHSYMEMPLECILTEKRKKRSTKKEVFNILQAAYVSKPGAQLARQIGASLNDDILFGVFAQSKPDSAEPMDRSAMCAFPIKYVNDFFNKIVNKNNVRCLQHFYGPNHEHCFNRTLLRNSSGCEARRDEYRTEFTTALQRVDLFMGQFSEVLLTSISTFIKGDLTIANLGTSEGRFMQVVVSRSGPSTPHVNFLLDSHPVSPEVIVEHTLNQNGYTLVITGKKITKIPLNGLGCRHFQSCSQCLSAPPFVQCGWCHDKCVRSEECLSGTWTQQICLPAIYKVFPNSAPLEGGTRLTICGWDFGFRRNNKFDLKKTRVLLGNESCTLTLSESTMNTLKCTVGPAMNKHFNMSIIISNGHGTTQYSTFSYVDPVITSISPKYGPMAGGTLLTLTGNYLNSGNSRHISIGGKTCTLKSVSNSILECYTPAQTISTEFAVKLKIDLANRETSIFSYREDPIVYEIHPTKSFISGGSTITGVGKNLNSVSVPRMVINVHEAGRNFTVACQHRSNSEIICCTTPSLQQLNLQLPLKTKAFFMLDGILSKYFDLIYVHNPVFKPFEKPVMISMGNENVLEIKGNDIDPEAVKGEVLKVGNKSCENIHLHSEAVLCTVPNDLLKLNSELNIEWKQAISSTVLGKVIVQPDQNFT
Sequence of monkey MET (fasMET-His) (as listed by the source): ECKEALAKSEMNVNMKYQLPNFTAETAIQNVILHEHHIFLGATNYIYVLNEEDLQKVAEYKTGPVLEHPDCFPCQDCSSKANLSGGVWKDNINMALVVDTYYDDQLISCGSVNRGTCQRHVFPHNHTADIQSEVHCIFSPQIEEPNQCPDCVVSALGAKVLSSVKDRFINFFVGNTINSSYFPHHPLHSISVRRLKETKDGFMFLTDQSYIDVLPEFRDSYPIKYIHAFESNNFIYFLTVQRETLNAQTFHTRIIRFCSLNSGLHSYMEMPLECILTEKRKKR
Sequence of monkey MET (fasMET-His) (as listed by the source): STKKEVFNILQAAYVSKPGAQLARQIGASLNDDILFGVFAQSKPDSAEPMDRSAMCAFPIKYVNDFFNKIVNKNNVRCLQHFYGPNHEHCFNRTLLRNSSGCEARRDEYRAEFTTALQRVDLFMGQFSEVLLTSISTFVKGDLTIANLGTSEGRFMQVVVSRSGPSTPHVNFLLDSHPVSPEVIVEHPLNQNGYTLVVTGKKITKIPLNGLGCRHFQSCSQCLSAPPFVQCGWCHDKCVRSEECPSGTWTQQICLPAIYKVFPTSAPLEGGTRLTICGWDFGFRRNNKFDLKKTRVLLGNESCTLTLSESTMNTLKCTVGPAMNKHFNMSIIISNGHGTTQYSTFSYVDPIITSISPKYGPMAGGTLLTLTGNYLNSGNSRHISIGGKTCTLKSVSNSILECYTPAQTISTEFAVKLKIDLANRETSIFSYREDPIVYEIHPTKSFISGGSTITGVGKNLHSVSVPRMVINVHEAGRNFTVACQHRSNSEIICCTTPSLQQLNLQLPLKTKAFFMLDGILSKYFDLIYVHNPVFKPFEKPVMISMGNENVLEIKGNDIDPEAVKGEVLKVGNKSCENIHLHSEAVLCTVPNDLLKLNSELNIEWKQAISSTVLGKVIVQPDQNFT
T1 sequence (Q75ZY9 25-933 limits assumed): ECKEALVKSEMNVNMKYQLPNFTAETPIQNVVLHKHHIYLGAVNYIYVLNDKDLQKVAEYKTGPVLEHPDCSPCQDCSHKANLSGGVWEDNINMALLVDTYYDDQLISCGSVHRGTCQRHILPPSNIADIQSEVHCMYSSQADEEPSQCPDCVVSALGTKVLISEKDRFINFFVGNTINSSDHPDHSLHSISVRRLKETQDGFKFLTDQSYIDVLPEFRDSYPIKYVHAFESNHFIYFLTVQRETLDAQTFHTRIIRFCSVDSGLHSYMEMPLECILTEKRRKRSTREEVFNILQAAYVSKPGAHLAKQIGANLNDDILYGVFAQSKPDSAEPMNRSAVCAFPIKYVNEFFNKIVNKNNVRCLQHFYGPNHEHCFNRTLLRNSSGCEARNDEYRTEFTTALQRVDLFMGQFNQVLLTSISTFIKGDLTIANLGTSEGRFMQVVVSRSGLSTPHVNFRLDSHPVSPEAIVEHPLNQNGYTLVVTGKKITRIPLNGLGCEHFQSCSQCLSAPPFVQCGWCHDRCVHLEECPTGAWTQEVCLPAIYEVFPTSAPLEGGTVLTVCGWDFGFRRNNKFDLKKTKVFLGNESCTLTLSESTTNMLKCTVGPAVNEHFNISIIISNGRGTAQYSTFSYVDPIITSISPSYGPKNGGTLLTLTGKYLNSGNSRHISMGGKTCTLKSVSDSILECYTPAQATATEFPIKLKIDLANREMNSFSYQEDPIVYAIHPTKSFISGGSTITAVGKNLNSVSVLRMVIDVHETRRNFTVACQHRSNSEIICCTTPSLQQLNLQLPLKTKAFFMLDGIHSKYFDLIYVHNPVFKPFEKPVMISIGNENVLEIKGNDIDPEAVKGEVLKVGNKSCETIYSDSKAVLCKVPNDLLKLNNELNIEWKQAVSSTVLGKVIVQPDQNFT

## Telisotuzumab analog: analog of Telisotuzumab, humanized IgG1 monoclonal antibody targeting MET; SEQ ID NO: 75 and 76 [reference compound]
[1]
  binding to monkey MET: showed binding affinity
[2]
  koff: 9.41e-05 s⁻¹
  kon: 62600 M⁻¹ s⁻¹
[3]
  KD: No binding
[4]
  MFI: 6969
  Positive Population: 2.32%
[5]
  MFI: 10344
  Positive Population: 0.63%
[6]
  KD: No binding
[7]
  binding to dog MET: no binding affinity
[8]
  MFI: 21700
  Percentage of Positive (endocytosis): 36.9%
[9]
  binding to human MET: showed binding affinity
[10]
  koff: 0.0001 s⁻¹
  kon: 103000 M⁻¹ s⁻¹
